In article PMC3745465 (PLoS ONE, 2013):
Where two headings read alike, the source gives them in different places.

Tests used:
[1] = mol drug per L lipid / mol drug per L aqueous buffer; 10 µM drug; 37°C
P-gp [2] = biological target: T1, P-gp (Homo sapiens, UniProt P08183); settings: MDCK-MDR1-NKI; fitted consensus value
[3] = tested on: apical uptake transporter (AT); settings: MDCK-MDR1-NKI; fitted
in vitro = settings: dog
[4] = design: method as in earlier work; settings: ref 18 19 20, cited from earlier work
P-gp [5] = biological target: T1, P-gp; assay: cell-based
[6] = tested on: basolateral digoxin uptake transporter; settings: MDCK-MDR1-NIH; 10 µM digoxin B>A, 1 hr; Trel = 0.6; listed as KCZ
[7] = tested on: basolateral digoxin uptake transporter; settings: Caco-2; 10 µM digoxin B>A, 1 hr; Trel = 0.2
[8] = tested on: basolateral digoxin uptake transporter; settings: CPT-B2; 10 µM digoxin B>A, 1 hr; Trel = 0.3
[9] = tested on: MDCK-MDR1-NKI confluent cell monolayers; settings: nicardipine up to 100 µM; data not shown
[10] = MDCK-MDR1, with GF120918 2 µM, both chambers, Passive Permeability Coefficient at steady-state PAB, A>B, +GF120918
[11] = MDCK-MDR1, with GF120918 2 µM, both chambers, Passive Permeability Coefficient at steady-state PBA, B>A, +GF120918
[12] = MDCK-MDR1, with GF120918 2 µM, both chambers, passive permeability, direction not given

T1 sequence (P08183 whole entry): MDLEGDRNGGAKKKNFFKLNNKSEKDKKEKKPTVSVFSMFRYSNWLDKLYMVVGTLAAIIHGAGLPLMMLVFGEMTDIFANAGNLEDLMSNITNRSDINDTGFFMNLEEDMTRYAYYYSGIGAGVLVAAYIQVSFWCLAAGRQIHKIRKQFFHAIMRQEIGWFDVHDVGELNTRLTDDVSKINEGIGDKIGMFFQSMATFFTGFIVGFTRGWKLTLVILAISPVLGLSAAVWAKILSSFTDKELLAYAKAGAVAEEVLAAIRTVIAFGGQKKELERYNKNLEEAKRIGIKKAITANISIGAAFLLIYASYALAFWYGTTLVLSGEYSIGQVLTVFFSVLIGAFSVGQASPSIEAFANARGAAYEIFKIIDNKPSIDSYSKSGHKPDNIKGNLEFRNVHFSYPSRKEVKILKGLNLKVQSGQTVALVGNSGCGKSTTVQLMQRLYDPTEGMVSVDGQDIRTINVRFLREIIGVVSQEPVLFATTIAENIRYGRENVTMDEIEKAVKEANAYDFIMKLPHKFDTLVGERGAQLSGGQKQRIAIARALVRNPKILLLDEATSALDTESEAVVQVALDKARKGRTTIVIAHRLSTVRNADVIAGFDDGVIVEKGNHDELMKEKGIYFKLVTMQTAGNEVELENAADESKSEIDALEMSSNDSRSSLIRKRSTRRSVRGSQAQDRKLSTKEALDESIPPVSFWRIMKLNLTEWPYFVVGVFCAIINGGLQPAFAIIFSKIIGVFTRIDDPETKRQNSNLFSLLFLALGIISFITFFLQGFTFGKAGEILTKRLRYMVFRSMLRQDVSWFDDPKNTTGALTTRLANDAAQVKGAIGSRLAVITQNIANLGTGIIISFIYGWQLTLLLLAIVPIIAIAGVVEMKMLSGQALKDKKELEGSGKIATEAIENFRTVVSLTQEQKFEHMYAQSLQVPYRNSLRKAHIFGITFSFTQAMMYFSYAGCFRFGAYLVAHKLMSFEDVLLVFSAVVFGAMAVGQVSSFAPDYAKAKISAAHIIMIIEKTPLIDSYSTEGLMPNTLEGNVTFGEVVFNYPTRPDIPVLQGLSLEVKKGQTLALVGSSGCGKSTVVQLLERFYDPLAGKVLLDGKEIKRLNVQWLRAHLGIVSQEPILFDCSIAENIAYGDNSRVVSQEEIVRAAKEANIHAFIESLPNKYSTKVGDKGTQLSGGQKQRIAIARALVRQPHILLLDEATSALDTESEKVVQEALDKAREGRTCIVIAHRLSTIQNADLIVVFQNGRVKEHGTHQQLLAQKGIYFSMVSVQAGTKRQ

For `CC[C@]1(O)C[C@@H]2CN(CCc3c([nH]c4ccccc34)[C@@](C(=O)OC)(c3cc4c(cc3OC)N(C)[C@H]3[C@@](O)(C(=O)OC)[C@H](OC(C)=O)[C@]5(CC)C=CCN6CC[C@]43[C@@H]65)C2)C1` [Vinblastine], the “Molar partition coefficient, Apical Outer Leaflet PC/SM/Chol (1∶1∶1) (mols), KAO” value [1] was 200±3, the “Molar partition coefficient, Basolateral Outer Leaflet PC/Chol (2∶1) (mols), KBO” value [1] was 200±20 and the “Molar partition coefficient, Plasma Cytosolic Leaflet PE/PS/Chol (1∶1∶1) (mols), KPC” value [1] was 200±50. The “Dissociation from P-gp into Apical Bilayer kr” value (P-gp [2]) was “(5±2.5)×10^+4 s^−1”, the “Efflux from P-gp into Apical Chamber k2” value (P-gp [2]) was 3 ± 0.5 s⁻¹ and the “Other Transporters kA, 1st order clearance through apical uptake transporter” value (“Other Transporters kA” for short) [3] was 0 s⁻¹. The Papp (in vitro; [10]) was 5.5 ± 2 ×10⁻⁶ cm/s, the Papp (in vitro; [11]) was 9 ± 1 ×10⁻⁶ cm/s and the Papp (in vitro; [12]) was less than 10 ×10⁻⁶ cm/s.
In the case of `CC(C)CN(C[C@@H](O)[C@H](Cc1ccccc1)NC(=O)O[C@H]1CCOC1)S(=O)(=O)c1ccc(N)cc1` [Amprenavir], the “Other Transporters kA” value [3] is reported as 350±30 0 s^−1.
With `C[C@H]1O[C@@H](O[C@H]2[C@@H](O)C[C@H](O[C@H]3[C@@H](O)C[C@H](O[C@H]4CC[C@@]5(C)[C@H](CC[C@@H]6[C@@H]5C[C@@H](O)[C@]5(C)[C@@H](C7=CC(=O)OC7)CC[C@]65O)C4)O[C@@H]3C)O[C@@H]2C)C[C@H](O)[C@@H]1O` [Digoxin] the “Dissociation from P-gp into Apical Bilayer kr” value (P-gp [2]) was “(3±1)×10^+4 s^−1”, the “Efflux from P-gp into Apical Chamber k2” value (P-gp [2]) was 3 ± 1 s⁻¹ and the “Other Transporters kA” value [3] was 40 ± 20 s⁻¹. The “aggregating compound or not” value ([4]; enzyme inhibition studies) was “not to be aggregating compounds”, the Papp (in vitro; [10]) was 4 ± 1 ×10⁻⁶ cm/s and the Papp (in vitro; [11]) was 5 ± 1 ×10⁻⁶ cm/s. It also gave a Papp (in vitro; [12]) of less than 10 ×10⁻⁶ cm/s.
For `CN(C)C(=O)C(CCN1CCC(O)(c2ccc(Cl)cc2)CC1)(c1ccccc1)c1ccccc1` [Loperamide], the “Molar partition coefficient, Apical Outer Leaflet PC/SM/Chol (1∶1∶1) (mols), KAO” value [1] was 300±50, the “Molar partition coefficient, Basolateral Outer Leaflet PC/Chol (2∶1) (mols), KBO” value [1] was 450±50 and the “Molar partition coefficient, Plasma Cytosolic Leaflet PE/PS/Chol (1∶1∶1) (mols), KPC” value [1] was 1500±250. The “Dissociation from P-gp into Apical Bilayer kr” value (P-gp [2]) was “(2±1)×10^+4 s^−1”, the “Efflux from P-gp into Apical Chamber k2” value (P-gp [2]) was 0.4 ± 0.08 s⁻¹ and the Papp (in vitro; MDCK-MDR1, Passive Permeability Coefficient at steady-state PAB, A>B, +GF120918) was 32 ± 7 ×10⁻⁶ cm/s. The Papp (in vitro; MDCK-MDR1, Passive Permeability Coefficient at steady-state PBA, B>A, +GF120918) was 32 ± 9 ×10⁻⁶ cm/s, the Papp (in vitro; MDCK-MDR1, passive permeability, direction not given) was roughly 32 ×10⁻⁶ cm/s and the Kd (P-gp [5]) was 200 µM.
For `CC(=O)N1CCN(c2ccc(OCC3COC(Cn4ccnc4)(c4ccc(Cl)cc4Cl)O3)cc2)CC1` (stereo not drawn) [Ketoconazole], the “Other Transporters kA” value [3] is listed as 730±70 0 s^−1, the “KQB, effective association constant of inhibitor to basolateral digoxin uptake transporter” value [6] is listed as “(4±2)×10^5 M^−1” and the “aggregating compound or not” value ([4]; enzyme inhibition studies) is listed as “not to be aggregating compounds”. The “KQB, effective association constant of inhibitor to basolateral digoxin uptake transporter” value [7] was “(2±1)×10^6 M^−1” and the “KQB, effective association constant of inhibitor to basolateral digoxin uptake transporter” value [8] was “(4±2)×10^6 M^−1”.
In the case of `COC(=O)C1=C(C)NC(C)=C(C(=O)OCCN(C)Cc2ccccc2)C1c1cccc([N+](=O)[O-])c1` (stereo not drawn) [nicardipine], the “PC plateau (large inhibitor concentration plateau) of digoxin transport inhibition” value [9] is given as “significantly above zero”, the “shape of inhibition curve of digoxin transport” value [9] is given as “sigmoidal” and the “concentration above which large aggregates are made” value ([4]; enzyme inhibition studies) is given as 30–40 µm. The “concentration at which colloidal aggregates form” value [4] was “about 30 µM”.
In the case of `C=C[C@H]1C[N@@]2CC[C@H]1C[C@@H]2[C@@H](O)c1ccnc2ccc(OC)cc12` [Quinidine], the “Dissociation from P-gp into Apical Bilayer kr” value (P-gp [2]) is reported as “(4±2)×10^+3 s^−1”, the “Efflux from P-gp into Apical Chamber k2” value (P-gp [2]) is reported as 3 ± 0.4 s⁻¹ and the Papp (in vitro; [10]) is reported as 67 ± 5 ×10⁻⁶ cm/s. For the same molecule, the Papp (in vitro; [11]) was 67 ± 5 ×10⁻⁶ cm/s.
